Measurements from patent US20080207683A1, “BIARYL-S[…]-PYRAZOLO-PYRIDINE MODULATORS OF CATHEPSIN S” (priority 2007, published 2008).
Read-outs that look alike come from different tables or passages of the source.

Molecular target: T1, Human CatS (Homo sapiens, UniProt P25774)
T1 construct: made in house; host or cells: Sf9 insect cells (baculovirus vector pFB+HT)
Experiment: CatS inhibition of hydrolysis of fluorescent substrate Z-Val-Val-Arg-AFC
Assay type: biochemical
Description: Human CatS was cloned into pFB+HT (from Stratagene clone), expressed in Sf9 cells, and purified over a Ni column. Fractions were concentrated and activated at pH 4.0 for 6 hr and then purified over a thiopropylsepharose column and eluted with 1×TBS, 500 mM NaCl, 1 mM EDTA, 25 mM DTT pH 7.6. Glycerol (50%) was added in a 1:1 (vol/vol) ratio (25% glycerol final) and protein was stored at −80° C. in 5 μL aliquots. […] The increase in fluorescence over time was monitored using λexcitation=400 nm and λemission=505 nm.
In equation 1, v is the initial rate measured in the presence of [I]0, the inhibitor concentration, using an enzyme concentration [E]0. v0 is the initial rate measured in the absence of inhibitor.

[1] = apparent Ki, Morrison equation fit of initial rates, 10 μM Z-Val-Val-Arg-AFC, pH 5.0, 1.5 nM CatS, read-out: CatS Ki^app

T1 sequence (P25774 115-331): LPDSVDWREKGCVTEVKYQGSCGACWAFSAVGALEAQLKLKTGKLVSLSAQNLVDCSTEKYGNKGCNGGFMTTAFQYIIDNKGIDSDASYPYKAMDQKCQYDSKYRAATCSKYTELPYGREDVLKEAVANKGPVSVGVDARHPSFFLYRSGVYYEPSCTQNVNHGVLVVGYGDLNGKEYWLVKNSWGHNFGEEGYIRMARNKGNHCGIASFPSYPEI

Structure (SMILES) | Ki [1] [nM] | Ki [nM]
COc1ccc(NCCNC(=O)c2cccc(-c3cc(-c4nn(CCCN5CCCC5)c5c4CN(S(C)(=O)=O)CC5)ccc3Cl)c2)cc1 [Example 1, 2′-Chloro-5′-[5-methanesulfonyl-1-(3-pyrrolidin-1-yl-propyl)-4,5,6,7-tetrahydro-1H-pyrazolo[4,3-c]pyridin-3-yl]-biphenyl-3-carboxylic acid [2-(4-methoxy-phenylamino)-ethyl]-amide] | 85 | 
Cc1ccc(NCCNC(=O)c2cccc(-c3cc(-c4nn(CCCN5CCCC5)c5c4CN(S(C)(=O)=O)CC5)ccc3Cl)c2)cc1 [Example 2, 2′-Chloro-5′-[5-methanesulfonyl-1-(3-pyrrolidin-1-yl-propyl)-4,5,6,7-tetrahydro-1H-pyrazolo[4,3-c]pyridin-3-yl]-biphenyl-3-carboxylic acid (2-p-tolylamino-ethyl)-amide] | 345 | 
CS(=O)(=O)N1CCc2c(c(-c3ccc(Cl)c(-c4cccc(C(=O)NCCNc5cccc6c5CCC6)c4)c3)nn2CCCN2CCCC2)C1 [Example 3, 2′-Chloro-5′-[5-methanesulfonyl-1-(3-pyrrolidin-1-yl-propyl)-4,5,6,7-tetrahydro-1H-pyrazolo[4,3-c]pyridin-3-yl]-biphenyl-3-carboxylic acid [2-(indan-4-ylamino)-ethyl]-amide] | 335 | 
COc1ccc(NCCNC(=O)c2cccc(-c3cc(-c4nn(CCCN5CCCC5)c5c4CN(S(C)(=O)=O)CC5)ccc3Cl)c2)cc1Cl [Example 4, 2′-Chloro-5′-[5-methanesulfonyl-1-(3-pyrrolidin-1-yl-propyl)-4,5,6,7-tetrahydro-1H-pyrazolo[4,3-c]pyridin-3-yl]-biphenyl-3-carboxylic acid [2-(3-chloro-4-methoxy-phenylamino)-ethyl]-amide] | 253 | 
CS(=O)(=O)N1CCc2c(c(-c3ccc(Cl)c(-c4cccc(C(=O)NCCNc5ccc(OCC6CCCC6)cc5)c4)c3)nn2CCCN2CCCC2)C1 [Example 5, 2′-Chloro-5′-[5-methanesulfonyl-1-(3-pyrrolidin-1-yl-propyl)-4,5,6,7-tetrahydro-1H-pyrazolo[4,3-c]pyridin-3-yl]-biphenyl-3-carboxylic acid [2-(4-cyclopentylmethoxy-phenylamino)-ethyl]-amide] | 60.2 | 
COc1ccc(NCCNC(=O)c2cccc(-c3cc(-c4nn(CCCN5CCCC5)c5c4CN(S(C)(=O)=O)CC5)ccc3Cl)c2)cn1 [Example 6, 2′-Chloro-5′-[5-methanesulfonyl-1-(3-pyrrolidin-1-yl-propyl)-4,5,6,7-tetrahydro-1H-pyrazolo[4,3-c]pyridin-3-yl]-biphenyl-3-carboxylic acid [2-(6-methoxy-pyridin-3-ylamino)-ethyl]-amide] | 317 | 
CS(=O)(=O)N1CCc2c(c(-c3ccc(Cl)c(-c4cccc(C(=O)NCCNc5cccnc5)c4)c3)nn2CCCN2CCCC2)C1 [Example 7, 2′-Chloro-5′-[5-methanesulfonyl-1-(3-pyrrolidin-1-yl-propyl)-4,5,6,7-tetrahydro-1H-pyrazolo[4,3-c]pyridin-3-yl]-biphenyl-3-carboxylic acid [2-(pyridin-3-ylamino)-ethyl]-amide] | 876 | 

Now from value to compound:

Ki [1] [nM] | Ki [nM] | Structure (SMILES)
237 |  | CS(=O)(=O)N1CCc2c(c(-c3ccc(Cl)c(-c4cccc(C(=O)NCCN5CCc6cc(F)ccc65)c4)c3)nn2CCCN2CCCC2)C1 [Example 8, 2′-Chloro-5′-[5-methanesulfonyl-1-(3-pyrrolidin-1-yl-propyl)-4,5,6,7-tetrahydro-1H-pyrazolo[4,3-c]pyridin-3-yl]-biphenyl-3-carboxylic acid [2-(5-fluoro-2,3-dihydro-indol-1-yl)-ethyl]-amide]
138 |  | C[C@@H](CN1CCc2cc(F)ccc21)NC(=O)c1cccc(-c2cc(-c3nn(CCCN4CCCC4)c4c3CN(S(C)(=O)=O)CC4)ccc2Cl)c1 [Example 9, (S)-2′-Chloro-5′-[5-methanesulfonyl-1-(3-pyrrolidin-1-yl-propyl)-4,5,6,7-tetrahydro-1H-pyrazolo[4,3-c]pyridin-3-yl]-biphenyl-3-carboxylic acid [2-(5-fluoro-2,3-dihydro-indol-1-yl)-1-methyl-ethyl]-amide]
49.4 |  | CN(C)S(=O)(=O)c1cccc2c1N(CCNC(=O)c1cccc(-c3cc(-c4nn(CCCN5CCCC5)c5c4CN(S(C)(=O)=O)CC5)ccc3Cl)c1)CC2 [Example 10, 2′-Chloro-5′-[5-methanesulfonyl-1-(3-pyrrolidin-1-yl-propyl)-4,5,6,7-tetrahydro-1H-pyrazolo[4,3-c]pyridin-3-yl]-biphenyl-3-carboxylic acid [2-(7-dimethylsulfamoyl-2,3-dihydro-indol-1-yl)-ethyl]-amide]
135 |  | CN(C)S(=O)(=O)c1ccc2c(c1)N(CCNC(=O)c1cccc(-c3cc(-c4nn(CCCN5CCCC5)c5c4CN(S(C)(=O)=O)CC5)ccc3Cl)c1)CC2 [Example 11, 2′-Chloro-5′-[5-methanesulfonyl-1-(3-pyrrolidin-1-yl-propyl)-4,5,6,7-tetrahydro-1H-pyrazolo[4,3-c]pyridin-3-yl]-biphenyl-3-carboxylic acid [2-(6-dimethylsulfamoyl-2,3-dihydro-indol-1-yl)-ethyl]-amide]
240 |  | CS(=O)(=O)N1CCc2c(c(-c3ccc(Cl)c(-c4cccc(C(=O)NCc5ncco5)c4)c3)nn2CCCN2CCCC2)C1 [Example 12, 2′-Chloro-5′-[5-methanesulfonyl-1-(3-pyrrolidin-1-yl-propyl)-4,5,6,7-tetrahydro-1H-pyrazolo[4,3-c]pyridin-3-yl]-biphenyl-3-carboxylic acid (oxazol-2-ylmethyl)-amide]
 | 330 | CS(=O)(=O)N1CCc2c(c(-c3ccc(Cl)c(-c4cccc(C(=O)NCc5cc6ccccc6[nH]5)c4)c3)nn2CCCN2CCCC2)C1 [Example 13, 2′-Chloro-5′-[5-methanesulfonyl-1-(3-pyrrolidin-1-yl-propyl)-4,5,6,7-tetrahydro-1H-pyrazolo[4,3-c]pyridin-3-yl]-biphenyl-3-carboxylic acid (1H-indol-2-ylmethyl)-amide]
350 |  | CS(=O)(=O)N1CCc2c(c(-c3ccc(Cl)c(-c4cccc(C(=O)NCc5cccs5)c4)c3)nn2CCCN2CCCC2)C1 [Example 14, 2′-Chloro-5′-[5-methanesulfonyl-1-(3-pyrrolidin-1-yl-propyl)-4,5,6,7-tetrahydro-1H-pyrazolo[4,3-c]pyridin-3-yl]-biphenyl-3-carboxylic acid (thiophen-2-ylmethyl)-amide]
 | 450 | COc1ccc(CNC(=O)c2cccc(-c3cc(-c4nn(CCCN5CCCC5)c5c4CN(S(C)(=O)=O)CC5)ccc3Cl)c2)cc1 [Example 15, 2′-Chloro-5′-[5-methanesulfonyl-1-(3-pyrrolidin-1-yl-propyl)-4,5,6,7-tetrahydro-1H-pyrazolo[4,3-c]pyridin-3-yl]-biphenyl-3-carboxylic acid 4-methoxy-benzylamide]
24 |  | Cc1ccc2[nH]c(C(C)NC(=O)c3cccc(-c4cc(-c5nn(CCCN6CCCC6)c6c5CN(S(C)(=O)=O)CC6)ccc4Cl)c3)nc2c1 (stereo not shown) [Example 16, 2′-Chloro-5′-[5-methanesulfonyl-1-(3-pyrrolidin-1-yl-propyl)-4,5,6,7-tetrahydro-1H-pyrazolo[4,3-c]pyridin-3-yl]-biphenyl-3-carboxylic acid [1-(5-methyl-1H-benzoimidazol-2-yl)-ethyl]-amide]
